The values below come from patent US12174198B2, “Methods of characterizing condensate-associated characteristics of compounds and uses thereof” (Dewpoint Therapeutics, Inc., priority 2019, dated 2024).

For one data set, the target named is T1, PGL-3 condensates (Caenorhabditis elegans, UniProt G5EBV6).
T1 sequence (G5EBV6 1-693): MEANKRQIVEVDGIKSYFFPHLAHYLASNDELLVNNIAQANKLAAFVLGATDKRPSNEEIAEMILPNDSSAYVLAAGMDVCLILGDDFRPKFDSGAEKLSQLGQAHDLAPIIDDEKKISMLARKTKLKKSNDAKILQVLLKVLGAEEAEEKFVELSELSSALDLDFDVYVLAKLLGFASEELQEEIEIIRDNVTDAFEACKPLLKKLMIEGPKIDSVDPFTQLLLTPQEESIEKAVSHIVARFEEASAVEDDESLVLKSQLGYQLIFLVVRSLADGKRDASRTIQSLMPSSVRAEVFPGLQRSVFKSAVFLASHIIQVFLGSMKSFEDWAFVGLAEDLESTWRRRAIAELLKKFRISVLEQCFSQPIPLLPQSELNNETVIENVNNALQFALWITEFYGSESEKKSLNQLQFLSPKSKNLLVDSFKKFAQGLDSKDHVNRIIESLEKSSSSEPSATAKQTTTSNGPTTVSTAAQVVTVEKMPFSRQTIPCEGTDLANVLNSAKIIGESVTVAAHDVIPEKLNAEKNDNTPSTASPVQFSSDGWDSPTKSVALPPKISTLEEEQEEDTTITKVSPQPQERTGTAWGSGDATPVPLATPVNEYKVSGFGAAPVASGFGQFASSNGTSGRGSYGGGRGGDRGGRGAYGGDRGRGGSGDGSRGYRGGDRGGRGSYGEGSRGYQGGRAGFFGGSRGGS
The data set is described as follows: Fluorescence imaging of dye partitioning in PGL-3 condensates (I-in, I-out). The format is physicochemical. The conditions noted are these: for Ratio of intensity inside:outside PGL-3 Condensates Day 1 / Ratio of intensity inside:outside PGL-3 Condensates Day 2 / Ratio of intensity inside:outside PGL-3 Condensates Average: I-in:I-out; for Ratio of intensity inside:outside PGL-3 Condensates Day 1 / Ratio of intensity inside:outside PGL-3 Condensates Day 2 / Ratio of intensity inside:outside PGL-3 Condensates Average / Intensity Inside with Dye Average / Intensity Inside with Dye 1 / Intensity Inside with Dye 2 / Intensity Inside with Dye 3 / Intensity Outside with Dye Average / Intensity Outside with Dye 1 / Intensity Outside with Dye 2 / Intensity Outside with Dye 3: 10 μM dye; for Ratio of intensity inside:outside PGL-3 Condensates Average: average of two days; for Intensity Inside with Dye Average / Intensity Inside with Dye 1 / Intensity Inside with Dye 2 / Intensity Inside with Dye 3 / Intensity Inside Dye-No Dye: inside PGL-3 condensate; for Intensity Inside with Dye Average / Intensity Inside with Dye 1 / Intensity Inside with Dye 2 / Intensity Inside with Dye 3 / Intensity Outside with Dye Average / Intensity Outside with Dye 1 / Intensity Outside with Dye 2 / Intensity Outside with Dye 3: 5 μM protein; for Intensity Inside with Dye Average / Intensity Outside with Dye Average: average of three images; for Intensity Inside with Dye Average / Intensity Inside with Dye 1 / Intensity Inside with Dye 2 / Intensity Inside with Dye 3 / Intensity Inside Dye-No Dye / Intensity Outside with Dye Average / Intensity Outside with Dye 1 / Intensity Outside with Dye 2 / Intensity Outside with Dye 3 / Intensity Outside (Dye-No Dye): one day of experiments; for Intensity Inside with Dye 1 / Intensity Outside with Dye 1: image 1; for Intensity Inside with Dye 2 / Intensity Outside with Dye 2: image 2; for Intensity Inside with Dye 3 / Intensity Outside with Dye 3: image 3; for Intensity Inside Dye-No Dye / Intensity Outside (Dye-No Dye): background corrected; for Intensity Outside with Dye Average / Intensity Outside with Dye 1 / Intensity Outside with Dye 2 / Intensity Outside with Dye 3 / Intensity Outside (Dye-No Dye): outside PGL-3 condensate. A digest of the protocol: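 Partitioning read by spinning-disk confocal imaging (60× oil, dye-specific exposure 1-1000 ms) of condensates formed from 5 μM protein (FUS-SNAP or untagged PGL-3) plus 10 μM dye, 75 mM KCl, 1% DMSO, pH 7.25. Background-subtracted intensities inside and beside one condensate per image, three images averaged.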

The target in the next data set is T2, FUS-GFP condensates (Homo sapiens, UniProt P35637).
T2 sequence (P35637 1-526): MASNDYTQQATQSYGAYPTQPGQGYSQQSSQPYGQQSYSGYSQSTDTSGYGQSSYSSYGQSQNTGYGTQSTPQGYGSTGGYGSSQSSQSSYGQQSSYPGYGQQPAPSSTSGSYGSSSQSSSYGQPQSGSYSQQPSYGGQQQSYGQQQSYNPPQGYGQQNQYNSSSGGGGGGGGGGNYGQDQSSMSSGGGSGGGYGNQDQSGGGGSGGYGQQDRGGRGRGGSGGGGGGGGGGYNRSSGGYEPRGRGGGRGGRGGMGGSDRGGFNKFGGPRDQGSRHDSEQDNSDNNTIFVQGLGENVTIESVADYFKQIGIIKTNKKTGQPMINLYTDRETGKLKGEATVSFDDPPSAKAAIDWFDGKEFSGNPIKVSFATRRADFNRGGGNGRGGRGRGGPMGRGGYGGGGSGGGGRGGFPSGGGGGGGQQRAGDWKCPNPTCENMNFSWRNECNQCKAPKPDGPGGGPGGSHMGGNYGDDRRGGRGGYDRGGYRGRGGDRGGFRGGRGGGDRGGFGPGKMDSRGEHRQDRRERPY
The data set can be described thus: Co-localization of dye and FUS in FUS-GFP condensates (confocal imaging). The format is physicochemical. The conditions noted are these: FIG. 6; FUS-GFP channel and Rhodamine 800 channel. How it is done: FUS-GFP condensates were prepared as described for FUS-SNAP in Example 2 using Dye 18.
A spinning disk confocal microscope was used to acquire images of the samples. A 60×oil high-NA objective lens was used to capture the condensate droplets. The laser power was set to 20% and the exposure times were adjusted to the fluorescence emission intensity specific for each dye. Exposure times ranged from 1-1000 ms. Appropriate filter settings were used, matching the excitation and emission spectra of the dye and GFP. Control images were taken of condensates containing FUS-GFP with no dye.

Counter-ions that a name gives are not always drawn.

For the compound `O=C1OC2(c3ccc(O)cc3Oc3cc(O)ccc32)c2ccccc21` [Dye 6, Fluorescein], on PGL-3 condensates, the “Ratio of intensity inside:outside PGL-3 Condensates Day 1” value stood at 1.0, the “Ratio of intensity inside:outside PGL-3 Condensates Day 2” value is reported as 1.0, the “Ratio of intensity inside:outside PGL-3 Condensates Average” value came out at 1.0 and the “Intensity Inside with Dye Average” value is 4402.0. Besides, at PGL-3 condensates, the “Intensity Inside with Dye 1” value is reported as 4585.4, the “Intensity Inside with Dye 2” value is reported as 4501.5, the “Intensity Inside with Dye 3” value amounted to 4119.2 and the “Intensity Inside Dye-No Dye” value is given as 4255.5. Further, at PGL-3 condensates, the “Intensity Outside with Dye Average” value was 4166.2, the “Intensity Outside with Dye 1” value is given as 4395.6, the “Intensity Outside with Dye 2” value was 4190.8 and the “Intensity Outside with Dye 3” value is 3912.1. In addition, the “Intensity Outside (Dye-No Dye)” value at PGL-3 condensates is reported as 4060.8.
Consider `COC(=O)c1ccccc1-c1c2ccc(=N)cc-2oc2cc(N)ccc12.Cl` [Dye 14, Rhodamine 123], for which, at PGL-3 condensates, the “Ratio of intensity inside:outside PGL-3 Condensates Day 1” value came out at 1.1, the “Ratio of intensity inside:outside PGL-3 Condensates Day 2” value is reported as 1.1, the “Ratio of intensity inside:outside PGL-3 Condensates Average” value was determined as 1.1 and the “Intensity Inside with Dye Average” value is recorded as 2877.7. For the same compound, on PGL-3 condensates, the “Intensity Inside with Dye 1” value stood at 2874.7, the “Intensity Inside with Dye 2” value was 2858.2, the “Intensity Inside with Dye 3” value was 2900.3 and the “Intensity Inside Dye-No Dye” value is 2731.2. For the same compound, at PGL-3 condensates, the “Intensity Outside with Dye Average” value amounted to 2596.6, the “Intensity Outside with Dye 1” value worked out at 2628.3, the “Intensity Outside with Dye 2” value is reported as 2616.4 and the “Intensity Outside with Dye 3” value was 2545.0. Further, the “Intensity Outside (Dye-No Dye)” value on PGL-3 condensates came to 2491.2.
Regarding `CCN(CC)c1ccc2c(-c3ccccc3C(=O)O)c3ccc(=[N+](CC)CC)cc-3oc2c1` [Dye 16, Rhodamine B], on PGL-3 condensates, the “Ratio of intensity inside:outside PGL-3 Condensates Day 1” value was found to be 1.4, the “Ratio of intensity inside:outside PGL-3 Condensates Day 2” value stood at 1.3, the “Ratio of intensity inside:outside PGL-3 Condensates Average” value is 1.4 and the “Intensity Inside with Dye Average” value worked out at 5776.5. Further, at PGL-3 condensates, the “Intensity Inside with Dye 1” value is given as 5570.5, the “Intensity Inside with Dye 2” value amounted to 6179.8, the “Intensity Inside with Dye 3” value worked out at 5579.3 and the “Intensity Inside Dye-No Dye” value is on record as 5675.0. For the same compound, at PGL-3 condensates, the “Intensity Outside with Dye Average” value is 4088.7, the “Intensity Outside with Dye 1” value was found to be 3907.8, the “Intensity Outside with Dye 2” value was found to be 4226.6 and the “Intensity Outside with Dye 3” value is recorded as 4131.5. Further, the “Intensity Outside (Dye-No Dye)” value at PGL-3 condensates was 3987.2.
In the case of `O=C([O-])c1ccccc1C1=c2cc3c4c(c2Oc2c1cc1c5c2CCCN5CCC1)CCC[N+]=4CCC3` [Dye 17, Rhodamine 101 inner salt], at PGL-3 condensates, the “Ratio of intensity inside:outside PGL-3 Condensates Day 1” value was 1.8, the “Ratio of intensity inside:outside PGL-3 Condensates Day 2” value stood at 1.9, the “Ratio of intensity inside:outside PGL-3 Condensates Average” value came to 1.9 and the “Intensity Inside with Dye Average” value is recorded as 13067.5. Moreover, at PGL-3 condensates, the “Intensity Inside with Dye 1” value was found to be 12579.6, the “Intensity Inside with Dye 2” value is 14061.0, the “Intensity Inside with Dye 3” value is recorded as 12561.8 and the “Intensity Inside Dye-No Dye” value worked out at 12966.0. Further, on PGL-3 condensates, the “Intensity Outside with Dye Average” value was found to be 7117.9, the “Intensity Outside with Dye 1” value was found to be 7184.0, the “Intensity Outside with Dye 2” value is on record as 7157.1 and the “Intensity Outside with Dye 3” value came out at 7012.6. Also, at PGL-3 condensates, the “Intensity Outside (Dye-No Dye)” value is listed as 7016.4.
`N#CC1=c2cc3c4c(c2Oc2c1cc1c5c2CCCN5CCC1)CCC[N+]=4CCC3` [Dye 18, Rhodamine 800]: the “Co-localization of dye with GFP-labeled FUS in condensates” value at FUS-GFP condensates is recorded as “co-localized in the condensates”. For the same compound, at PGL-3 condensates, the “Ratio of intensity inside:outside PGL-3 Condensates Day 1” value came to 3.4, the “Ratio of intensity inside:outside PGL-3 Condensates Day 2” value is 2.4, the “Ratio of intensity inside:outside PGL-3 Condensates Average” value was found to be 2.9 and the “Intensity Inside with Dye Average” value worked out at 730.8. For the same compound, on PGL-3 condensates, the “Intensity Inside with Dye 1” value turned out to be 714.9, the “Intensity Inside with Dye 2” value is reported as 700.1, the “Intensity Inside with Dye 3” value is reported as 777.4 and the “Intensity Inside Dye-No Dye” value is reported as 604.6. For the same compound, on PGL-3 condensates, the “Intensity Outside with Dye Average” value amounted to 309.4, the “Intensity Outside with Dye 1” value is recorded as 301.3, the “Intensity Outside with Dye 2” value stood at 294.6 and the “Intensity Outside with Dye 3” value is listed as 332.2. In addition, the “Intensity Outside (Dye-No Dye)” value on PGL-3 condensates amounted to 178.7.
